The source of these data is patent US4072759A, “Novel benzylalcohol derivatives as antidiabetics and cardiotonics” (Tanabe Seiyaku Co., Ltd., priority 1976, dated 1978).

Data set [1] is described as follows: decrease of blood sugar in mice, oral administration prior to subcutaneous injection of glucose. The class given is in vivo. The method, then:
For example, when α-(3,4-dimethoxyphenethylaminomethyl)-2-hydroxybenzylalcohol is administered orally to mice at a dose of 10 mg/kg prior to subcutaneous injection of glucose (1 g/kg), said 2-hydroxybenzylalcohol derivative of the invention decreases the blood sugar level by about 30 %. On the other hand, when examined under the same conditions as above, 100 mg/kg of Phenformin (Chemical name: 1-phenethylbiguanide) are required to induce 13 % decrease in said blood sugar.

For data set [2], the system named is adrenergic β1-receptor. As to conditions: cited from earlier work.
In data set [3] the test system is adrenergic β1-receptor. The data set can be described thus: cardiac contractile activity (general statement).
Data set [4] concerns adrenergic β1-receptor. Kind of data set: increase of cardiac contractile force after injection into femoral vein of dogs. The class given is in vivo. As to conditions: injected into femoral vein, 10 μg/kg.
Data set [5] is described as follows: 50 % lethal dose by intravenous injection to mice. As to conditions: mouse, in vivo. The text has this: Further, the toxicity of the benzylalcohol derivative (I) of the present invention is remarkably low.

For `N=C(N)NC(=N)NCCc1ccccc1` [Phenformin, 1-phenethylbiguanide, reference compound], the “decrease in blood sugar” value in data set [1] (mice, same conditions, 100 mg/kg) was 13%.
Turning to `COc1cc(CCNCC(O)c2ccc(O)c(O)c2)cc(OC)c1OC` (stereo not drawn) [α-(3,4,5-trimethoxyphenethylaminomethyl)-3,4-dihydroxybenzylalcohol], the “activation of adrenergic β1-receptor” value with adrenergic β1-receptor [2] was “selective activation of adrenergic β1 -receptor”.
On to `COc1ccc(CCNCC(O)c2ccccc2O)cc1OC` (stereo not drawn) [α-(3,4-dimethoxyphenethylaminomethyl)-2-hydroxybenzylalcohol], for which the “decreases the blood sugar level” value in data set [1] (mice, oral, 10 mg/kg, prior to subcutaneous glucose (1 g/kg)) was “about 30%”. Also, the “decrease of blood sugar (in words)” value in data set [1] (mouse, in vivo) is given as “remarkable decrease of blood sugar”. In addition, the cardiac contractile activity result in the data set on adrenergic β1-receptor [3] is reported as “no substantial cardiac contractile activity”.
With `COc1ccc(CCNCC(O)c2ccc(O)c(O)c2)cc1OC` (stereo not drawn) [α-(3,4-dimethoxyphenethylaminomethyl)-3,4-dihydroxybenzylalcohol], the “activation of adrenergic β1-receptor” value with adrenergic β1-receptor [2] is recorded as “selective activation of adrenergic β1 -receptor”.
On to `COc1ccc(CCNCC(O)c2cccc(O)c2)cc1OC` (stereo not drawn) [α-(3,4-dimethoxyphenethylaminomethyl)-3-hydroxybenzylalcohol], for which the “increase the cardiac contractile force” value in the data set with adrenergic β1-receptor [4] came to 55%.
`COc1ccc(CCNCC(O)c2ccc(O)cc2)cc1OC` (stereo not drawn) [α-(3,4-dimethoxyphenethylaminomethyl)-4-hydroxybenzylalcohol] gave an LD50 in data set [5] of approximately 198 mg/kg.
